Experimental data from publication PMC9693464 (Toxins, 2022).
Marks after values point to notes of the source that are not given here.

Assays:
[1] = test system: MoAb MNV87 (IgG1, κ); type: binding, mouse
[2] = test system: PoAbs (anti-NIV polyclonal antibodies, mouse serum); type: binding
[3] = test system: MoAb MNV80 (IgG1, κ); type: binding, mouse
[4] = cited from earlier work
[5] = test system: monoclonal antibody (MoAb) prepared by Maragos et al.; conditions: cited from earlier work
[6] = test system: animals; conditions: cited from earlier work

Row | Molecule | IC50 (fifty percent inhibitory concentration) with MoAb MNV87 [1] | reactivity with MNV87 (in words) [1] | IC50 (fifty percent inhibitory concentration) with PoAb [2] | IC50 (fifty percent inhibitory concentration) with MoAb MNV80 [3] | reactivity with MNV80 (in words) [3] | fold lower IC50 than that with NIV, MNV87 [1] | reaction range, concentrations between the IC20 and IC80 values, MNV87 [1] | fold lower IC50 than that with NIV, PoAbs [2] | reaction range, concentrations between the IC20 and IC80 values, PoAbs [2] | fold lower IC50 than that with NIV, MNV80 [3] | reaction range, concentrations between the IC20 and IC80 values, MNV80 [3] | temporary tolerable daily intake level ([4]; LOAEL with a safety factor of 1000) | lowest observed adverse effect level [4] | cross-reactivity compared to reactivity with DON [5] | IC50 of PoAb after the 1st booster immunization [2] | toxicity to animals compared with DON (in words) [6]
1 | 4-acetylnivalenol [4-Ac-NIV] | >1 µg/mL | not | >1000 ng/mL | >1 µg/mL | not |  |  |  |  |  |  |  |  |  |  | 
2 | CC(=O)O[C@@H]1C[C@]2(C)[C@@]3(CO)[C@H](O)C(=O)C(C)=C[C@H]3O[C@H]1[C@@]21CO1 [3-Ac-DON, 3-acetyldeoxynivalenol] | >1 µg/mL |  |  | >1 µg/mL |  |  |  |  |  |  |  |  |  |  |  | 
3 | CC(=O)OC[C@]12[C@H](O)C(=O)C(C)=C[C@H]1O[C@@H]1[C@H](O)C[C@@]2(C)[C@]12CO2 [15-Ac-DON, 15-acetyldeoxynivalenol] | >1 µg/mL |  |  | >1 µg/mL |  |  |  |  |  |  |  |  |  |  |  | 
4 | CC(=O)OC[C@]12[C@H](O)C(=O)C(C)=C[C@H]1O[C@@H]1[C@H](O)[C@@H](O)[C@@]2(C)[C@]12CO2 [15-Ac-NIV, 15-acetylnivalenol] | 0.018 µg/mL | specifically reacted | 11 ng/mL | 0.018 µg/mL | specifically reacted | 2 fold | 0.0024 to 0.095 µg/mL | 6.4 fold | 0.0017 to 0.085 µg/mL | 2 fold | 0.0028 to 0.1 µg/mL |  |  |  |  | 
5 | CC1=C[C@H]2O[C@@H]3[C@H](O)C[C@](C)([C@@]2(CO)[C@H](O)C1=O)[C@]31CO1 [DON, deoxynivalenol] | >1 µg/mL | not | >1000 ng/mL | >1 µg/mL | not |  |  |  |  |  |  | 1.0 μg/kg body weight |  |  |  | 
6 | CC1=C[C@H]2O[C@@H]3[C@H](O)[C@@H](O)[C@](C)([C@@]2(CO)[C@H](O)C1=O)[C@]31CO1 [NIV, nivalenol] | 0.037 µg/mL | specifically reacted | 70 * ng/mL | 0.036 µg/mL | specifically reacted |  | 0.0071 to 0.17 µg/mL |  | 0.012 to 0.95 µg/mL |  | 0.0069 to 0.18 µg/mL |  | 0.7 mg/kg body weight per day | 57.4% | 1.4 µg/mL | more toxic to animals than DON
